Experimental data: the supplement of paper PMC12137928
Counter-ions that a name gives are not always drawn.

System: HCT116
Settings: 72 h
How it was run: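 HCT116 cells were seeded at 250 per well in 1536-well plates with 5 h allowed for attachment. CellTiter-Glo luminescence was normalized against vehicle (0%) and positive control (-100%) before pattern correction. The IC50 and maximal efficacy figures derive from four-parameter Hill fits.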

CN(C)C(=O)COC(=O)Cc1ccc(OC(=O)c2ccc(NC(=N)N)cc2)cc1 [Camostat]
IC50 cell viability (ICRF193 0 nM): > 45.8 µM | IC50 cell viability (ICRF193 200 nM): > 45.8 µM

CCN(CC)CCNC(C(=O)OCCC(C)C)c1ccccc1 (centres undefined) [Camylofin]
IC50 cell viability (ICRF193 0 nM): > 45.8 µM | IC50 cell viability (ICRF193 200 nM): > 45.8 µM

Cc1ccc([C@@H]2O[C@H](CO)[C@@H](O)[C@H](O)[C@H]2O)cc1Cc1ccc(-c2ccc(F)cc2)s1 [Canagliflozin]
IC50 cell viability (ICRF193 0 nM): > 45.8 µM | IC50 cell viability (ICRF193 200 nM): > 45.8 µM

CCCCCOC(=O)Nc1nc(=O)n([C@@H]2O[C@H](C)[C@@H](O)[C@H]2O)cc1F [Capecitabine]
IC50 cell viability (ICRF193 0 nM): > 45.8 µM | IC50 cell viability (ICRF193 200 nM): > 45.8 µM

C[C@@H]1NC(=O)[C@@H](N)CNC(=O)[C@H]([C@H]2CCNC(N)=N2)NC(=O)/C(=C/NC(N)=O)NC(=O)[C@H](CNC(=O)C[C@@H](N)CCCN)NC1=O [Capreomycin IB]
IC50 cell viability (ICRF193 0 nM): > 45.8 µM | IC50 cell viability (ICRF193 200 nM): > 45.8 µM

CN1N=C2CCN(C(=O)[C@@H](COCc3ccccc3)NC(=O)C(C)(C)N)C[C@@]2(Cc2ccccc2)C1=O [Capromorelin]
IC50 cell viability (ICRF193 0 nM): > 45.8 µM | IC50 cell viability (ICRF193 200 nM): > 45.8 µM

O=C1C2CC=CCC2C(=O)N1SC(Cl)(Cl)Cl (centres undefined) [Captan]
IC50 cell viability (ICRF193 0 nM): > 45.8 µM | IC50 cell viability (ICRF193 200 nM): > 45.8 µM

C[C@H](CS)C(=O)N1CCC[C@H]1C(=O)O [Captopril]
IC50 cell viability (ICRF193 0 nM): > 45.8 µM | IC50 cell viability (ICRF193 200 nM): > 45.8 µM

CCN(CC)CCOC(=O)C1(c2ccccc2)CCCC1 [Caramiphen edisylate]
IC50 cell viability (ICRF193 0 nM): > 45.8 µM | IC50 cell viability (ICRF193 200 nM): > 45.8 µM

C[N+](C)(C)CCOC(N)=O [Carbachol]
IC50 cell viability (ICRF193 0 nM): > 45.8 µM | IC50 cell viability (ICRF193 200 nM): > 45.8 µM

COC(=O)N/N=C/c1c[n+]([O-])c2ccccc2[n+]1[O-] [Carbadox]
IC50 cell viability (ICRF193 0 nM): > 45.8 µM | IC50 cell viability (ICRF193 200 nM): > 45.8 µM

NC(=O)N1c2ccccc2C=Cc2ccccc21 [Carbamazepine]
IC50 cell viability (ICRF193 0 nM): > 45.8 µM | IC50 cell viability (ICRF193 200 nM): > 45.8 µM

CNC(=O)Oc1cccc2ccccc12 [Carbaryl]
IC50 cell viability (ICRF193 0 nM): > 45.8 µM | IC50 cell viability (ICRF193 200 nM): > 45.8 µM

CN1C2=CC(=O)/C(=N\NC(N)=O)C=C2CC1S(=O)(=O)O (centres undefined) [Carbazochrome sodium sulfonate]
IC50 cell viability (ICRF193 0 nM): > 45.8 µM | IC50 cell viability (ICRF193 200 nM): > 45.8 µM

CC1(C)S[C@@H]2[C@H](NC(=O)C(C(=O)O)c3ccccc3)C(=O)N2[C@H]1C(=O)O (some centres undefined) [Carbenicillin disodium]
IC50 cell viability (ICRF193 0 nM): > 45.8 µM | IC50 cell viability (ICRF193 200 nM): > 45.8 µM

CC1(C)S[C@@H]2[C@H](NC(=O)C(C(=O)Oc3ccc4c(c3)CCC4)c3ccccc3)C(=O)N2[C@H]1C(=O)O (some centres undefined) [Carbenicillin indanyl]
IC50 cell viability (ICRF193 0 nM): > 45.8 µM | IC50 cell viability (ICRF193 200 nM): > 45.8 µM

CC1(C)[C@@H](OC(=O)CCC(=O)O)CC[C@]2(C)[C@H]3C(=O)C=C4[C@@H]5C[C@@](C)(C(=O)O)CC[C@]5(C)CC[C@@]4(C)[C@]3(C)CC[C@@H]12 [Carbenoxolone sodium]
IC50 cell viability (ICRF193 0 nM): > 45.8 µM | IC50 cell viability (ICRF193 200 nM): > 45.8 µM

CCN(CC)CCOCCOC(=O)C1(c2ccccc2)CCCC1 [Carbetapentane]
IC50 cell viability (ICRF193 0 nM): > 45.8 µM | IC50 cell viability (ICRF193 200 nM): > 45.8 µM

C[C@@](Cc1ccc(O)c(O)c1)(NN)C(=O)O [Carbidopa]
IC50 cell viability (ICRF193 0 nM): > 45.8 µM | IC50 cell viability (ICRF193 200 nM): > 45.8 µM

CCOC(=O)n1ccn(C)c1=S [Carbimazole]
IC50 cell viability (ICRF193 0 nM): > 45.8 µM | IC50 cell viability (ICRF193 200 nM): > 45.8 µM

CN(C)CCOC(c1ccc(Cl)cc1)c1ccccn1 (centres undefined) [Carbinoxamine maleate]
IC50 cell viability (ICRF193 0 nM): > 45.8 µM | IC50 cell viability (ICRF193 200 nM): > 45.8 µM

N[C@@H](CSCC(=O)O)C(=O)O [Carbocysteine]
IC50 cell viability (ICRF193 0 nM): > 45.8 µM | IC50 cell viability (ICRF193 200 nM): > 45.8 µM

COC(COC(N)=O)C1=C(N2CC2)C(=O)C(C)=C(N2CC2)C1=O (centres undefined) [Carboquone]
IC50 cell viability (ICRF193 0 nM): > 45.8 µM | IC50 cell viability (ICRF193 200 nM): > 45.8 µM

CN(C)C(=O)N[C@H]1CC[C@H](CCN2CCN(c3cccc(Cl)c3Cl)CC2)CC1 [Cariprazine]
IC50 cell viability (ICRF193 0 nM): > 45.8 µM | IC50 cell viability (ICRF193 200 nM): > 45.8 µM

O=NN(CCCl)C(=O)NCCCl [Carmustine]
IC50 cell viability (ICRF193 0 nM): > 45.8 µM | IC50 cell viability (ICRF193 200 nM): > 45.8 µM

CC(C(=O)O)c1ccc2c(c1)[nH]c1ccc(Cl)cc12 (centres undefined) [Carprofen]
IC50 cell viability (ICRF193 0 nM): > 45.8 µM | IC50 cell viability (ICRF193 200 nM): > 45.8 µM

COC(=O)CCC[N+](C)(C)C [Carpronium chloride]
IC50 cell viability (ICRF193 0 nM): > 45.8 µM | IC50 cell viability (ICRF193 200 nM): > 45.8 µM
